Test [1] relates to PC-12 cells. As to the kind of experiment: Cell death protective effect in adrenal cells against Erastin, glutamate and RSL3 (LDH). It counts as cell-based, rat. The settings on record: 24 h. The protocol:
In order to identify the protective effect on adrenal cells, PC-12 cells were divided into 96-well plates by 1×10^4 and cultured for 18 to 24 hours. […] Erastin, glutamate, and RSL3 were treated to have final concentrations of 1 μM, 10 mM, and 0.3 μM, respectively, and cultured for 24 hours. In order to identify the protective effect of each compound, the degree of LDH extracellular secretion was measured using cytotoxicity LDH assay kit [Dojindo; CK12]. Briefly, at the time when the treatment of the cells with Erastin, glutamate, and RSL3 for 24 hours is completed, the supernatants containing the cells are taken by 70 μL and transferred to a new 96-well plate. The assay buffer included in the kit is added in an amount of 70 μL/well (the same amount as the sample) thereto, and then the plate is wrapped with a foil and the reaction is performed at room temperature for 15 minutes.

The subject of test [2] is MLE-12 cells. As to the kind of experiment: Cell death protective effect in lung epithelial cells against RSL3 (LDH). It counts as cell-based, rat. The settings on record: MLE-12, RSL3, 1 μM, 24 h. As to the method: In order to identify the protective effect on lung epithelial cells, MLE-12 cells were divided into 96-well plates by 5×10^3 and cultured for 18 to 24 hours. The compounds of Examples were diluted to final concentrations of 0.03 and 0. μM, treated in each well, and incubated for 20 minutes. RSL3 was treated to have final concentrations of 1. μM, respectively, and cultured for 24 hours. In order to identify the protective effect of each compound, the degree of LDH extracellular secretion was measured using cytotoxicity LDH assay kit [Dojindo; CK12]. Briefly, at the time when the treatment of the cells with RSL3 for 24 hours is completed, the supernatants containing the cells are taken by 70 μL and transferred to a new 96-well plate. The assay buffer included in the kit is added in an amount of 70 μL/well (the same amount as the sample) thereto, and then the plate is wrapped with a foil and the reaction is performed at room temperature for 15 minutes.

The test system of test [3] is ARPE-19 cells. The test can be described thus: Cell death protective effect in retinal epithelial cells against Erastin and RSL3 (LDH). In kind it is cell-based, human. The settings on record: 24 h. The protocol:
In order to identify the protective effect on retinal epithelial cells, ARPE-19 cells were divided into 96-well plates by 1×10^4 and cultured for 18 to 24 hours. The compounds of Examples were diluted to final concentrations of 0.03 and 0.3 μM, treated in each well, and incubated for 20 minutes. Erastin, and RSL3 were treated to have final concentrations of 10 μM, and 0.3 μM, respectively, and cultured for 24 hours. In order to identify the protective effect of each compound, the degree of LDH extracellular secretion was measured using cytotoxicity LDH assay kit [Dojindo; CK12]. Briefly, at the time when the treatment of the cells with Erastin, and RSL3 for 24 hours is completed, the supernatants containing the cells are taken by 70 μL and transferred to a new 96-well plate. The assay buffer included in the kit is added in an amount of 70 μL/well (the same amount as the sample) thereto, and then the plate is wrapped with a foil and the reaction is performed at room temperature for 15 minutes.

Test [4] relates to NIH/3T3 cells. As to the kind of experiment: Cell death protective effect in fibroblasts against Erastin, glutamate and RSL3 (LDH). In kind it is cell-based, mouse. The settings on record: 24 h. As to the method:
(§1) In order to identify the protective effect on fibroblasts, NIH/3T3 cells were divided into 96-well plates by 8×10^3 and cultured for 18 to 24 hours. The compounds of Examples were diluted to final concentrations of 0.1 and 1 μM, treated in each well, and incubated for 15 to 20 minutes. Erastin, glutamate, and RSL3 were treated to have final concentrations of 3 μM, 30 mM, and 3 μM, respectively, and cultured for 24 hours. In order to identify the protective effect of each compound, the degree of LDH extracellular secretion was measured using cytotoxicity LDH assay kit [Dojindo; CK12]. Briefly, at the time when the treatment of the cells with Erastin, glutamate, and RSL3 for 24 hours is completed, the supernatants containing the cells are taken by 70 μL and transferred to a new 96-well plate. The assay buffer included in the kit is added in an amount of 70 μL/well (the same amount as the sample) thereto, and then the plate is wrapped with a foil and the reaction is performed at room temperature for 15 minutes.

Test [5] deals with H9C2 cells. The test can be described thus: Cell death protective effect in cardiac myocytes against Erastin, glutamate and RSL3 (LDH). In kind it is cell-based, white mouse. The settings on record: 24 h. The protocol: as §1, with “on cardiac cells, H9C2” for “on fibroblasts, NIH/3T3”, “by 1×10^4” for “by 8×10^3”, “and 1.0” for “and 1”, “of 1” for “of 3”, “μM, 25” for “μM, 30”, “and 0.5” for “and 3”

[6] abbreviates: PC-12, Erastin, 1 μM, compound 0.1 μM.
The mark [7] stands for this setting: PC-12, Erastin, 1 μM, compound 1.0 μM.
The mark [8] stands for this setting: PC-12, Glutamate, 10 mM, compound 0.1 μM.
Setting [9] is: PC-12, Glutamate, 10 mM, compound 1.0 μM.
Setting [10] is: PC-12, RSL3, 0.3 μM, compound 0.1 μM.
[11] abbreviates: PC-12, RSL3, 0.3 μM, compound 1.0 μM.
[12] abbreviates: ARPE-19, Erastin, 10 μM, compound 0.03 μM.
The mark [13] stands for this setting: ARPE-19, Erastin, 10 μM, compound 0.3 μM.
Setting [14] is: ARPE-19, RSL3, 0.3 μM, compound 0.03 μM (first RSL3 column).
Setting [15] is: ARPE-19, RSL3, 0.3 μM, compound 0.03 μM (second RSL3 column).
The mark [16] stands for this setting: NIH/3T3, Erastin, 3 μM, compound 0.1 μM.
The mark [17] stands for this setting: NIH/3T3, Erastin, 3 μM, compound 1.0 μM.
The mark [18] stands for this setting: NIH/3T3, Glutamate, 30 mM, compound 0.1 μM.
The mark [19] stands for this setting: NIH/3T3, Glutamate, 30 mM, compound 1.0 μM.
Setting [20] is: NIH/3T3, RSL3, 3 μM, compound 0.1 μM.
The mark [21] stands for this setting: NIH/3T3, RSL3, 3 μM, compound 1.0 μM.
Setting [22] is: H9C2, Erastin, 1 μM, compound 0.1 μM.
Setting [23] is: H9C2, Erastin, 1 μM, compound 1.0 μM.
Where [24] appears, read: H9C2, Glutamate, 25 mM, compound 0.1 μM.
Where [25] appears, read: H9C2, Glutamate, 25 mM, compound 1.0 μM.
The mark [26] stands for this setting: H9C2, RSL3, 0.5 μM, compound 0.1 μM.
Where [27] appears, read: H9C2, RSL3, 0.5 μM, compound 1.0 μM.

For the compound `COCc1cc(NC2CCCC2)c2[nH]c(-c3ccccc3)cc2c1` [Example 2, N-cyclopentyl-5-(methoxymethyl)-2-phenyl-1H-indol-7-amine], the “inhibition (%)” value in test [1] (setting [6]) came to 100%; in test [1] (setting [7]), 100%; in test [1] (setting [8]), 96%; in test [1] (setting [9]), 100%; in test [1] (setting [10]), 100%; in test [1] (setting [11]) it was 100%. Moreover, the “inhibition (%)” value in test [2] (compound 0.03 μM) is listed as 84%; in test [2] (compound 0.3 μM) it was 9%; in test [3] (setting [12]), 100%; in test [3] (setting [13]), 100%; in test [3] (setting [14]) it was 100%; in test [3] (setting [15]), 100%. Moreover, the “inhibition (%)” value in test [4] (setting [16]) is 99%; in test [4] (setting [17]), 100%; in test [4] (setting [18]), 98%; in test [4] (setting [19]), 99%; in test [4] (setting [20]) it was 100%; in test [4] (setting [21]), 100%. Moreover, the “inhibition (%)” value in test [5] (setting [22]) worked out at 100%; in test [5] (setting [23]) it was 100%; in test [5] (setting [24]), 97%; in test [5] (setting [25]) it was 98%; in test [5] (setting [26]) it was 100%; in test [5] (setting [27]), 100%.
For the compound `COCc1cc(NC2CCOCC2)c2[nH]c(-c3ccccc3)cc2c1` [Example 1, 5-(methoxymethyl)-2-phenyl-N-tetrahydropyran-4-yl-1H-indol-7-amine], the “inhibition (%)” value is 100% in test [1] (setting [6]); 100% in test [1] (setting [7]); 77% in test [1] (setting [8]); 100% in test [1] (setting [9]); 100% in test [1] (setting [10]); 100% in test [1] (setting [11]). Moreover, the “inhibition (%)” value in test [2] (compound 0.03 μM) came out at 88%; in test [2] (compound 0.3 μM), 100%; in test [3] (setting [12]), 100%; in test [3] (setting [13]), 100%; in test [3] (setting [14]) it was 100%; in test [3] (setting [15]) it was 100%. For the same compound, the “inhibition (%)” value in test [4] (setting [16]) was 99%; in test [4] (setting [17]) it was 99%; in test [4] (setting [18]), 98%; in test [4] (setting [19]), 97%; in test [4] (setting [20]) it was 98%; in test [4] (setting [21]), 99%. The “inhibition (%)” value is 100% in test [5] (setting [22]); 100% in test [5] (setting [23]); 97% in test [5] (setting [24]); 98% in test [5] (setting [25]); 100% in test [5] (setting [26]); 100% in test [5] (setting [27]).
Take `COCc1cc(NC2CC[S+]([O-])CC2)c2[nH]c(-c3ccccc3)cc2c1` (stereo not drawn) [Example 14, 5-(methoxymethyl)-N-(1-oxothian-4-yl)-2-phenyl-1H-indol-7-amine]: the “inhibition (%)” value was 100% in test [1] (setting [6]); 100% in test [1] (setting [7]); 45% in test [1] (setting [8]); 100% in test [1] (setting [9]); 100% in test [1] (setting [10]); 100% in test [1] (setting [11]). Moreover, the “inhibition (%)” value is listed as 50% in test [2] (compound 0.03 μM); 100% in test [2] (compound 0.3 μM); 100% in test [3] (setting [12]); 98% in test [3] (setting [13]); 82% in test [3] (setting [14]); 98% in test [3] (setting [15]). In addition, the “inhibition (%)” value came to 38% in test [4] (setting [16]); 100% in test [4] (setting [17]); 97% in test [4] (setting [18]); 96% in test [4] (setting [19]); 100% in test [4] (setting [20]); 100% in test [4] (setting [21]). The “inhibition (%)” value in test [5] (setting [22]) was 100%; in test [5] (setting [23]) it was 100%; in test [5] (setting [24]), 97%; in test [5] (setting [25]), 99%; in test [5] (setting [26]) it was 100%; in test [5] (setting [27]) it was 100%.
Take `CCOCc1cc(NC2CCCC2)c2[nH]c(-c3ccccc3)cc2c1` [Example 19, N-cyclopentyl-5-(ethoxymethyl)-2-phenyl-1H-indol-7-amine]: the “inhibition (%)” value in test [1] (setting [6]), in test [1] (setting [7]), in test [1] (setting [8]), in test [1] (setting [9]), in test [1] (setting [10]) and in test [1] (setting [11]) was 100% each time. The “inhibition (%)” value stood at 93% in test [2] (compound 0.03 μM); 100% in test [2] (compound 0.3 μM); 99% in test [3] (setting [12]); 100% in test [3] (setting [13]); 100% in test [3] (setting [14]); 100% in test [3] (setting [15]). Moreover, the “inhibition (%)” value in test [4] (setting [16]) was 100%; in test [4] (setting [17]), 100%; in test [4] (setting [18]) it was 95%; in test [4] (setting [19]), 97%; in test [4] (setting [20]), 100%; in test [4] (setting [21]) it was 100%. For the same compound, the “inhibition (%)” value stood at 100% in test [5] (setting [22]); 100% in test [5] (setting [23]); 99% in test [5] (setting [24]); 100% in test [5] (setting [25]); 100% in test [5] (setting [26]); 100% in test [5] (setting [27]).
